Results taken from patent US20040175353A1, “Cyanoacrylate compositions for prophylactic or therapeutic treatment of diseases manifesting themselves in and/or damage cutaneous tissue” (priority 2001, published 2004).

Tested on: HSV-I infection around the mouth
Test: Initial studies: HSV-I infection around the mouth treated with ethyl cyanoacrylate (Examples 1-3)
Assay type: in vivo, human
Experimental: Examples 1-3 are initial studies describing three patient groups at different stages of development of HSV-I infection around the mouth which has been treated with ethyl cyanoacrylate (LOCTITE 411, Henkel Loctite Adhesive Ltd.). The infected areas were applied about ⅓ drop of liquid ethyl cyanoacrylate by means of a toothpick and the polymerization was allowed to pass off.
Patient group 1 consisted of three patients without visible symptoms. The group was treated prophylactically as mentioned above under latent HSV-I infection, pronounced prickling and itching in the mucous membrane at the lip being the cause of the treatment.
Patient group 2 consisted of 2 patients with visible blisters in the corner of the mouth due to infection with HSV-I. The group was treated initially for 3 hours, after which the ethyl cyanoacrylate coat with content of virus and tissue was removed. The treatment was repeated 2 times for 24 hours, after which the coat was removed.
Patient group 3 consisted of 4 patients all having large suppurating crusts in a large area around the mouth. The group were initially treated by applying liquid ethyl cyanoacrylate which was allowed to polymerise. The polymer coat with adhering crust was removed immediately after polymerization, and the treatment repeated 4 times for 24 hours.

With C=C(C#N)C(=O)OCC [ethyl cyanoacrylate] the “development of visible blisters or wounds” value (Patient group 1: three patients, latent HSV-I infection without visible symptoms, prophylactic treatment, coat removed after overnight) was “no patients in Patient group 1 developed visible blisters or wounds”, the “visible traces, symptoms and scar formation after treatment” value (Patient group 2: 2 patients with visible blisters in corner of mouth, 3 hours, then repeated 2 times for 24 hours) was “no visible traces after the outbreak and both patients were free of symptoms without scar formation” and the “symptoms and scar formation after treatment” value (Patient group 3, fourth patient, treated for further 24 hours) was “subsequently had no symptoms or scar formation”. For the same molecule, the “symptoms and scar formation after treatment” value (Patient group 3: 4 patients with large suppurating crusts, crust pulled off, treatment repeated 4 times for 24 hours) was “three patients had no symptoms or scar formation”.
